# From publication PMC3074303 (Biochemistry, 2010)
# Target: arrestin-1 (visual arrestin) (Bos taurus, UniProt P08168, F197A/F85A)
# Test: 2D 1H-15N TROSY NMR chemical shift titration fitted to a […] model
# Assay type: binding
# Sequence of arrestin-1 (visual arrestin) (P08168 whole entry F85A/F197A): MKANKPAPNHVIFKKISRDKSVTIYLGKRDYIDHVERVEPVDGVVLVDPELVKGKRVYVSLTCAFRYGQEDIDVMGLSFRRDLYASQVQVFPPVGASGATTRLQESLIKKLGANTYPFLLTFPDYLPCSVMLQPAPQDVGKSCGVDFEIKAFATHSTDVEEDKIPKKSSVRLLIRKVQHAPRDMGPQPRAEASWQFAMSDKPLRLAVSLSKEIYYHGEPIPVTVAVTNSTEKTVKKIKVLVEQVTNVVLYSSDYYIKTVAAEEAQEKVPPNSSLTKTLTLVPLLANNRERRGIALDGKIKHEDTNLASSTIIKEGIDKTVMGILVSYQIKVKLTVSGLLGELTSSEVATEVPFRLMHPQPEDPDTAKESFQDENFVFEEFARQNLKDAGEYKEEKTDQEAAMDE
structure (smiles),measurement,value
O=P(O)(O)O[C@H]1[C@H](OP(=O)(O)O)[C@@H](OP(=O)(O)O)[C@H](OP(=O)(O)O)[C@@H](OP(=O)(O)O)[C@H]1OP(=O)(O)O [IP6],Kd,160 ± 60 µM
